“And” between values parts separate entries of the source, which are not always exact repeats. Equal values may be shown once.
Key:
KLHDC2^SBD [1] = molecular target: T1, KLHDC2^SBD (Homo sapiens, UniProt Q9Y2U9); assay: Thermal shift assay (Sypro Orange) probing stabilization of KLHDC2^SBD; assay type: binding; set-up: KLHDC2^SBD (15-361) and its Avi-tagged counterpart were expressed in E. coli Rosetta2 cells; 6XHis-MBP (N, cleaved yes); made in house; host or cells: E. coli Rosetta2; conditions: for ΔTm at 50 µM: read-out: ΔTm at 50 µM; for Thermal shift ΔTm: KLHDC2^SBD, ligand concentration not given
T1 sequence (Q9Y2U9 15-361): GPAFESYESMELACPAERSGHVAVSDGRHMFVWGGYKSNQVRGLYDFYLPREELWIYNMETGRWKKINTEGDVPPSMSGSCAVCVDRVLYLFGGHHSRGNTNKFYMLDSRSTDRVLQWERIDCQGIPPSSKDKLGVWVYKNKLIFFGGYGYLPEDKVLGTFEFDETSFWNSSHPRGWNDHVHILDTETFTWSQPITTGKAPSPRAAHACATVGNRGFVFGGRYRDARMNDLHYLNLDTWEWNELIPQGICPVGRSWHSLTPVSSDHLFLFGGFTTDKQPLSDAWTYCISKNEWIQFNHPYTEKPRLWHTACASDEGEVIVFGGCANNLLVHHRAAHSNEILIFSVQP
Method: In an attempt to identify non-peptide ligands that target KLHDC2’s substrate binding domain (SBD), we developed a thermal shift assay probing for stabilization of KLHDC2^SBD upon ligand addition. […] We utilized the thermal shift assay to screen ~ 9,000 molecules from a diverse collection of lead-like molecules (Figs. 1b, S1a, Supplementary Table 1).
Experimental compounds (200 nl each) were dispensed into a 384-well PCR plate using the Labcyte ECHO 655 T. The assay solution, comprising 0.5 μM KLHDC2, 25 mM HEPES, 200 mM NaCl, and 5% Sypro Orange at pH 7.5, was added to achieve a final volume of 20 μl. Negative control wells contained only DMSO, while positive control wells contained a di-Gly substrate peptide derived from SELK. Fluorescence measurements of Sypro Orange in each sample were taken using a Quantstudio 5 or Quantstudio 6, with temperatures ranging from 23 to 75 °C at a rate of 0.05 °C/s. Data analysis involved calculating thermal stability using the Boltzmann and first derivative minima equations in Thermo Scientific Protein Thermal Shift software v1.4. The resulting data were uploaded to CDD Vault for further analysis.
The 8892-compound lead-like one library was screened for its ability to stabilize KLHDC2 using a sypro orange-based thermal stability single-point assay.
Supplementary Ta b l e 1. Small molecule screening data
Category Parameter Description
Assay Ty p e o f assay Thermal Stability Screen
Primary measurement RFU of Sypro Orange
Key reagents Sypro Orange
Assay protocol Experimental compounds (200nl each) were dispensed into […]
a 384-well PCR plate using the Labcyte ECHO 655T. The […]
assay solution, comprising 0.5µM KLHDC2, 25mM HEPES,
200mM NaCl, and 5% Sypro Orange at pH 7.5, was added […]
to achieve a final volume of 20μl. Negative control wells […]
contained only DMSO, while positive control wells […]
contained peptide sub2. Fluorescence measurements of
Sypro Orange in each sample were taken using a
Quantstudio 5 or Quantstudio 6, with temperatures ranging […]
from 23 to 75°C at a rate of 0.05°C/second. Data analysis […]
involved calculating thermal stability using the Boltzmann […]
and first derivative minima equations in Thermo Scientific
Protein Thermal Shift software v1.4. The resulting data […]
were uploaded to CDD Vault for further analysis.
Library Library size 10041
Library composition The library was curated from compounds cherry picked […]
from St. Jude’s collection, representative of 80% of the […]
entire collection based on scaffold diversity (2D Molecular […]
fingerprinting based clustering) and structural properties: […]
lipophilicity (cLogP<3), size (MW 200-300 Da), and no […]
structural alerts (PAINS).
Source The compound collection was curated from multiple […]
vendors and stored on-site.
Screen Format The assay was completed in 26 384 well plates
Concentration(s) tested Compounds were tested at 100µM, and then a 16-point […]
serial dilution was performed on select compounds.
Plate controls DMSO as negative control and peptide sub2 as positive […]
Reagent/ compound dispensing system Multidrop Combi and Labcyte ECHO 655T […]
Detection instrument and software Quant Studio 5 and Quant Studio 6 and Thermo Scientific […]
Protein Thermal Shift software v1.4
Correction factors No correction factors were applied.

KLHDC2^SBD [2] = molecular target: T1, KLHDC2^SBD; assay: ITC, binary binding of small molecule to KLHDC2^SBD
[3] = ITC Kd, cell: ligand, syringe: KLHDC2^SBD
[4] = Kd, ITC, syringe KLHDC2, cell compound, Rep1, Rep2
[5] = cell: ligand, syringe: KLHDC2^SBD

Row | Structure (SMILES) | ΔTm at 50 µM (KLHDC2^SBD [1]) [°C] | Kd (KLHDC2^SBD [2]; [3]) | Kd (KLHDC2^SBD [2]; [4]) | ITC -TΔS (KLHDC2^SBD [2]; [5]) | ITC stoichiometry of binding N (KLHDC2^SBD [2]; [5]) | ITC ΔG (KLHDC2^SBD [2]; [5]) | ITC ΔH (KLHDC2^SBD [2]; [5]) | Thermal shift ΔTm (KLHDC2^SBD [1]) [°C] | Kd (KLHDC2^SBD [2]; ITC Kd, as printed in Fig 2d/3b) [nM] | Kd (KLHDC2^SBD [2]; Kd, Rep1/Rep2, ITC source data Fig4a, syringe KLHDC2, cell PROTAC alone)
1 | O=C(O)CNC(=O)Cc1csc(-c2ccccc2F)n1 [SJ6145] | 1.1 ± 0.03 |  |  |  |  |  |  |  |  | 
2 | COCOc1ccc(-c2nc(CC(=O)NCC(=O)O)cs2)c(Cl)c1 [SJ10278] | 3.5 ± 0.3 |  |  |  |  |  |  |  |  | 
3 | O=C(O)CNC(=O)Cc1csc(-c2ccc3ccccc3c2)n1 [SJ46411] |  | ~260 nM and 220 nM | 202 nM and 238 nM | -1.52 +/- 0.04 kcal/mol-1 | 0.9 | -8.81 +/- 0.07 kcal/mol-1 | -7.30 +/- 0.10 kcal/mol-1 | 6.0 |  | 
4 | COCCOc1cccc2ccc(-c3nc(CC(=O)NCC(=O)O)cs3)cc12 [SJ46418] |  | 216 ± 17 nM | 205 nM and 229 nM | -0.94 +/- 0.02 kcal/mol-1 | 0.9 | -8.82 +/- 0.04 kcal/mol-1 | -7.88 +/- 0.07 kcal/mol-1 | 4.3 | 210 | 
5 | Cc1sc2c(c1C)C(c1ccc(Cl)cc1)=N[C@@H](CC(=O)N1CCN(CCOc3cccc4ccc(-c5nc(CC(=O)NCC(=O)O)cs5)cc34)CC1)c1nnc(C)n1-2 [SJ46421] |  | 304 ± 39 nM |  | -1.03 +/- 0.22 kcal/mol-1 | 0.8 | -9.1 +/- 0.02 kcal/mol-1 | -8.07 +/- 0.22 kcal/mol-1 |  |  | 338 nM and 269 nM
